Legend:
Assay type in all cases: in vivo
Setaria viridis = experiment: Herbicidal pre-emergence action (greenhouse pots), SETVI; conditions: 1280 g/ha, visual scoring after about 3 weeks vs untreated controls
Description: (§1) In the examples and tables below, the following abbreviations are used: • Undesired Plants/Weeds: • ABUTH: Abutilon theophrasti • AGSTE: Agrostis tenuis • AMARE Amaranthus retroflexus • ECHCG: Echinochloa crus-galli • LOLRI: Lolium rigidum • MATIN: Matricaria inodora • POAAN: Poa annua • SETVI: Setaria viridis • STEME: Stellaria media A. Herbicidal Early Post-Emergence Action Seeds of mono- and dicotyledonous weed plants were placed in plastic pots in sandy loam soil (doubly sown with one species each of mono- or dicotyledonous weed plants per pot) and covered with soil. The compounds of the invention, formulated in the form of wettable powders (WP) or as emulsion concentrates (EC), were then applied onto the surface of the covering soil as aqueous suspension or emulsion with addition of 0.5% additive at a water application rate of 600 liters per hectare (converted). After the treatment, the pots were placed in a greenhouse and kept under good growth conditions for the test plants. After about 3 weeks, the effect of the preparations was scored visually in comparison with untreated controls as percentages. For example, 100% activity=the plants have died, 0% activity=like untreated control plants. Tables C1-C8 below show the effects of selected compounds of the general formula (I) according to Table 1 above on various harmful plants and an application rate corresponding to 1280 g/ha, which were obtained by the experimental procedure mentioned above.

Poa annua [1] = experiment: Herbicidal early post-emergence action (96-well microtiter plates), POAAN; conditions: 1900 g/ha, scored 9 to 12 days after treatment, 100% = plants have died, 0% = like untreated control plants
Description: (§2) In the examples and tables below, the following abbreviations are used: • Undesired Plants/Weeds: • ABUTH: Abutilon theophrasti • AGSTE: Agrostis tenuis • AMARE Amaranthus retroflexus • ECHCG: Echinochloa crus-galli • LOLRI: Lolium rigidum • MATIN: Matricaria inodora • POAAN: Poa annua • SETVI: Setaria viridis • STEME: Stellaria media A. Herbicidal Early Post-Emergence Action Seeds of monocotyledonous and dicotyledonous weed plants were placed in 96-well microtiter plates in quartz sand and grown in a climatized chamber under controlled growth conditions. 5 to 7 days after sowing, the test plants were treated at the cotyledon stage. The compounds according to the invention, formulated in the form of emulsion concentrates (EC), were applied with a water application rate of the equivalent of 2200 liters per hectare. After the test plants had been left to stand in the climatized chamber for 9 to 12 days under optimum growth conditions, the effect of the preparations was scored visually in comparison to untreated controls. Here, for example, 100% activity=the plants have died, 0% activity=like untreated control plants. Tables A1 to A2 below show the effects of selected compounds of the general formula (I) according to Table 1 above on various harmful plants and an application rate corresponding to 1900 g/ha, which were obtained by the experimental procedure mentioned above.

Stellaria media [2] = experiment: Herbicidal post-emergence action (greenhouse pots), STEME; conditions: 1280 g/ha, visual rating about 3 weeks after treatment vs untreated controls
Description: (§3) In the examples and tables below, the following abbreviations are used: • Undesired Plants/Weeds: • ABUTH: Abutilon theophrasti • AGSTE: Agrostis tenuis • AMARE Amaranthus retroflexus • ECHCG: Echinochloa crus-galli • LOLRI: Lolium rigidum • MATIN: Matricaria inodora • POAAN: Poa annua • SETVI: Setaria viridis • STEME: Stellaria media A. Herbicidal Early Post-Emergence Action Seeds of mono- and dicotyledonous weed plants were placed in plastic pots in sandy loam soil (doubly sown with in each case one species of mono- or dicotyledonous weed plants per pot), covered with soil and cultivated in a greenhouse under controlled growth conditions. 2 to 3 weeks after sowing, the test plants were treated at the one-leaf stage. The compounds of the invention, formulated in the form of wettable powders (WP) or as emulsion concentrates (EC), were applied onto the green parts of the plants as aqueous suspension or emulsion with addition of 0.5% additive at a water application rate of 600 liters per hectare (converted). After the test plants had been kept in the greenhouse under optimum growth conditions for about 3 weeks, the activity of the preparations was rated visually in comparison to untreated controls. For example, 100% activity=the plants have died, 0% activity=like untreated control plants. Tables B1-B8 below show the effects of selected compounds of the general formula (I) according to Table 1 above on various harmful plants and an application rate corresponding to 1280 g/ha, which were obtained by the experimental procedure mentioned above.

Agrostis tenuis = experiment: Herbicidal early post-emergence action (96-well microtiter plates), AGSTE; conditions: 1900 g/ha, scored 9 to 12 days after treatment, 100% = plants have died, 0% = like untreated control plants
Description: as §2

Amaranthus retroflexus [3] = experiment: Herbicidal pre-emergence action (greenhouse pots), AMARE; conditions: 1280 g/ha, visual scoring after about 3 weeks vs untreated controls
Description: as §1

Poa annua [4] = experiment: Herbicidal pre-emergence action (greenhouse pots), POAAN; conditions: 1280 g/ha, visual scoring after about 3 weeks vs untreated controls
Description: as §1

Amaranthus retroflexus [5] = experiment: Herbicidal post-emergence action (greenhouse pots), AMARE; conditions: 1280 g/ha, visual rating about 3 weeks after treatment vs untreated controls
Description: as §3

Abutilon theophrasti = experiment: Herbicidal post-emergence action (greenhouse pots), ABUTH; conditions: 1280 g/ha, visual rating about 3 weeks after treatment vs untreated controls
Description: as §3

Stellaria media [6] = experiment: Herbicidal pre-emergence action (greenhouse pots), STEME; conditions: 1280 g/ha, visual scoring after about 3 weeks vs untreated controls
Description: as §1

Matricaria inodora = experiment: Herbicidal pre-emergence action (greenhouse pots), MATIN; conditions: 1280 g/ha, visual scoring after about 3 weeks vs untreated controls
Description: as §1

Echinochloa crus-galli = experiment: Herbicidal pre-emergence action (greenhouse pots), ECHCG; conditions: 1280 g/ha, visual scoring after about 3 weeks vs untreated controls
Description: as §1

Compound | herbicidal activity SETVI (Setaria viridis) [%] | POAAN (herbicidal activity, scored visually in comparison to untreated controls) (Poa annua [1]) [%] | herbicidal activity STEME (Stellaria media [2]) [%] | AGSTE (herbicidal activity, scored visually in comparison to untreated controls) (Agrostis tenuis) [%] | herbicidal activity AMARE (Amaranthus retroflexus [3]) [%] | herbicidal activity POAAN (Poa annua [4]) [%] | herbicidal activity AMARE (Amaranthus retroflexus [5]) [%] | herbicidal activity ABUTH (Abutilon theophrasti) [%] | herbicidal activity STEME (Stellaria media [6]) [%] | herbicidal activity MATIN (Matricaria inodora) [%] | herbicidal activity ECHCG (Echinochloa crus-galli) [%]
N#Cc1cccc(Nc2ccccn2)c1Oc1ccc(F)cc1 [Example 1-88] | 90 | 80 | 100 | 100 | 100 | – | – | – | – | – | –
N#Cc1cccc(Nc2ccc(F)cn2)c1Oc1ccc(F)cc1 [Example 1-106] | – | 100 | 90 | 100 | 100 | 100 | 100 | – | – | – | –
N#Cc1cccc(Nc2ccc(F)cn2)c1Oc1ccc(F)c(F)c1 [Example 1-111] | 90 | 100 | 90 | 100 | 100 | – | 100 | 90 | 100 | 90 | –
N#Cc1cccc(Nc2ncccn2)c1Oc1ccc(Cl)cc1 [Example 1-250] | 90 | 80 | 90 | 80 | 100 | 100 | 100 | – | 100 | – | –
N#Cc1cccc(Nc2ncccn2)c1Oc1ccc(F)cc1F [Example 1-251] | 90 | 80 | – | 80 | 100 | – | 100 | – | 100 | 100 | –
N#Cc1cccc(Nc2ncccn2)c1Oc1ccc(F)cc1Cl [Example 1-255] | – | 80 | 100 | 80 | 100 | – | 100 | – | 100 | – | –
N#Cc1cccc(Nc2ncccn2)c1Oc1ccc(Cl)cc1F [Example 1-256] | 90 | 80 | – | 80 | 100 | 100 | 100 | – | 100 | 90 | –
N#Cc1cccc(Nc2ncc(F)cn2)c1Oc1ccc(F)cc1Cl [Example 1-274] | – | 100 | 90 | 80 | 90 | 90 | 100 | – | 90 | – | –
N#Cc1cccc(Nc2ncc(Cl)cn2)c1Oc1cccc(F)c1 [Example 1-285] | 100 | – | – | – | 100 | 100 | 100 | – | 100 | – | 90
N#Cc1cccc(Nc2ncc(Cl)cn2)c1Oc1ccc(F)cc1Cl [Example 1-293] | 100 | 80 | – | 80 | 100 | – | 100 | 90 | 90 | – | –
COc1cccc(Oc2c(C#N)cccc2Nc2ncc(Cl)cn2)c1 [Example 1-300] | – | – | – | 80 | 90 | – | 100 | – | 100 | 90 | –
N#Cc1cnc(Nc2cccc(C#N)c2Oc2ccc(F)cc2)nc1 [Example 1-304] | 100 | 100 | – | 100 | 100 | 100 | 100 | – | 100 | 100 | –
N#Cc1cnc(Nc2cccc(C#N)c2Oc2ccc(F)c(F)c2)nc1 [Example 1-305] | 90 | 100 | 100 | 100 | 100 | 100 | 100 | – | 100 | 100 | –
COc1cnc(Nc2cccc(C#N)c2Oc2ccc(F)cc2)nc1 [Example 1-312] | 90 | 100 | 100 | 100 | 100 | 100 | 100 | 100 | 100 | 100 | –
N#Cc1cccc(Nc2ncc(OC(F)F)cn2)c1Oc1ccc(F)cc1 [Example 1-314] | 100 | 80 | 100 | 100 | – | – | 100 | 90 | – | – | –
N#Cc1ccc(Oc2ccccc2Nc2ncc(Cl)cn2)cc1 [Example 1-339] | – | 100 | 100 | 100 | – | – | 100 | – | – | – | –
Clc1cnc(Nc2cccc(Cl)c2Oc2ccccc2)nc1 [Example 1-340] | 100 | 100 | 100 | 80 | 100 | 100 | 100 | 90 | 90 | – | –
Clc1cnc(Nc2ccccc2Oc2cccnc2)nc1 [Example 3-49] | – | – | – | 80 | – | – | 100 | 90 | – | – | –

— patent publication US12415786B2, “Substituted 2-heteroarylaminobenzenes and the salts thereof and their use as herbicidal agents” (Bayer Aktiengesellschaft, priority 2019, dated 2025)
